Results published in publication PMC3544981 (Pharmacology, biochemistry, and behavior, 2012).
Where “and” joins values, the source holds several entries; their conditions need not be identical. Equal values may be shown once. Read-outs that look alike come from different tables or passages of the source.

What was measured:
[1] = tested on: β2VL mice; conditions: mouse, in vivo, ip, 5 mg/kg
[2] = tested on: β2VL mice; conditions: male, mouse, in vivo, ip, 2 mg/kg
[3] = biological target: α4β2*-nAChR binding sites; experiment: [125I]-Epibatidine binding to membrane fragments, cortex; set-up: species or system mouse; conditions: read-out: Kd for [125I]-epibatidine, HT mice
[4] = biological target: T1, α4β2*-nAChR binding sites (Mus musculus, UniProt O70174+Q9ERK7, V287L); experiment: as above; conditions: read-out: Kd for [125I]-epibatidine, MT mice
T1 sequence (O70174 31-629): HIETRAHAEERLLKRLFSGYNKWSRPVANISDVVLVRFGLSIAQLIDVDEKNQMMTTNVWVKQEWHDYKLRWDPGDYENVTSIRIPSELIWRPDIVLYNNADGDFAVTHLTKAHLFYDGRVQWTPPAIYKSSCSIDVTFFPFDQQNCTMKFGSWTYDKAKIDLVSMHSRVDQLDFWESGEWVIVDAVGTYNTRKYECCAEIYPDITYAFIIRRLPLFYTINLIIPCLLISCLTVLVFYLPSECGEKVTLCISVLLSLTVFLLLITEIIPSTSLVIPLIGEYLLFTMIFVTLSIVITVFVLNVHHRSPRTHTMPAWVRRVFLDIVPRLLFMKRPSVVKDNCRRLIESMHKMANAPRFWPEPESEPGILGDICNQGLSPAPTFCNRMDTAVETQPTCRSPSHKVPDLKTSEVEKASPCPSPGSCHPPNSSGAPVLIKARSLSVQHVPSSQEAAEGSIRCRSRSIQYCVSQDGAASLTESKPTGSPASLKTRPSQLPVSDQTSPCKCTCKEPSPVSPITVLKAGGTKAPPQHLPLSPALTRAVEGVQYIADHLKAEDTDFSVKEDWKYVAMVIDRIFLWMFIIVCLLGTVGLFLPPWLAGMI
T1 sequence (Q9ERK7 26-501 V287L): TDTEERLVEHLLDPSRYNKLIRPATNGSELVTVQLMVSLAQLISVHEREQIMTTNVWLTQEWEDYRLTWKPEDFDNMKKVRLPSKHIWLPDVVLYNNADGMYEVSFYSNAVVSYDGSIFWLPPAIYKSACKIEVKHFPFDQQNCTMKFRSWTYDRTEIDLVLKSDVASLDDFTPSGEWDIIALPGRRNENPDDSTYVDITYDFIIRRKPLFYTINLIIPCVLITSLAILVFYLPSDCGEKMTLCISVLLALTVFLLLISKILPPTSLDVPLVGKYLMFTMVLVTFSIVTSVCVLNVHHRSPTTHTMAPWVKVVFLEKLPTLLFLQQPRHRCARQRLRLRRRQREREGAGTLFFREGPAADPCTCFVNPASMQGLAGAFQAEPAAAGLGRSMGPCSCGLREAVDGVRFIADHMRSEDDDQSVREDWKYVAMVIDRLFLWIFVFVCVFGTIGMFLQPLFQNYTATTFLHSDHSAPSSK

[5] = biological target: T2, α4β2*-nAChR binding sites (Mus musculus, UniProt O70174+Q9ERK7); experiment: as above; conditions: read-out: Kd for [125I]-epibatidine, WT mice
T2 sequence (Q9ERK7 26-501): as the sequence (Q9ERK7 26-501 V287L) above, with L262V counted along it
T2 sequence (O70174 31-629): as the sequence (O70174 31-629) above

[6] = biological target: α4β2*-nAChR binding sites; experiment: [125I]-Epibatidine binding to membrane fragments, thalamus; set-up: species or system mouse; conditions: read-out: Kd for [125I]-epibatidine, HT mice
[7] = biological target: T1, α4β2*-nAChR binding sites; experiment: as above; conditions: read-out: Kd for [125I]-epibatidine, MT mice
[8] = biological target: T2, α4β2*-nAChR binding sites; experiment: as above; conditions: read-out: Kd for [125I]-epibatidine, WT mice
[9] = biological target: T3, α4β2*-nAChRs (Mus musculus, UniProt O70174+Q9ERK7); type: biochemical
[10] = biological target: T4, α4β2*-nAChRs (Mus musculus, UniProt O70174+Q9ERK7, V287L); type: biochemical
T4 sequence (O70174 31-629): as above
T4 sequence (Q9ERK7 26-501 V287L): as the sequence (Q9ERK7 26-501 V287L) above

[11] = biological target: T3, α4β2*-nAChRs
[12] = biological target: T4, α4β2*-nAChRs
[13] = biological target: α6β2*-nAChR (Mus musculus, UniProt Q9ERK7+Q9R0W9, V287L); conditions: striatum, MT mice
Sequence of α6β2*-nAChR (Mus musculus, UniProt Q9ERK7+Q9R0W9, V287L) (Q9R0W9 31-494): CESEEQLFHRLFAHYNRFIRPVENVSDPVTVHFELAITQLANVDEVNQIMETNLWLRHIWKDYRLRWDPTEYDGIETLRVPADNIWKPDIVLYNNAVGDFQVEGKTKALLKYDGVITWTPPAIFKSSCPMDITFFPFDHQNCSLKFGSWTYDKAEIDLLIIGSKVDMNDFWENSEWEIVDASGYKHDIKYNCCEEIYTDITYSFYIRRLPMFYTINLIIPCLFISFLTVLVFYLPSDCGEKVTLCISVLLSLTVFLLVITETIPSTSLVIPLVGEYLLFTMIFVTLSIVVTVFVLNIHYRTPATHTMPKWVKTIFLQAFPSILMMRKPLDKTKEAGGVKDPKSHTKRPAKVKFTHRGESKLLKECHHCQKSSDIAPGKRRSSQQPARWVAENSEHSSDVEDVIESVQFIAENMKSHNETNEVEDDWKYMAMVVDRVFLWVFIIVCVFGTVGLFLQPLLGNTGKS
Sequence of α6β2*-nAChR (Mus musculus, UniProt Q9ERK7+Q9R0W9, V287L) (Q9ERK7 26-501 V287L): as the sequence (Q9ERK7 26-501 V287L) above

[14] = biological target: α6β2*-nAChR (Mus musculus, UniProt Q9ERK7+Q9R0W9)
[15] = biological target: α4β2*-nAChR (Mus musculus, UniProt O70174+Q9ERK7); type: biochemical
Sequence of α4β2*-nAChR (O70174 31-629): as the sequence (O70174 31-629) above
Sequence of α4β2*-nAChR (Q9ERK7 26-501): as the sequence (Q9ERK7 26-501 V287L) above, with L262V counted along it

[16] = tested on: α4S248F mutation; conditions: 2007, cited from earlier work
[17] = β2VL knock-in, homozygous mutant (MT)

CN1CCC[C@H]1c1cccnc1 [nicotine]
interval from DAC to spike-wave seizure with tonic-clonic convulsions [1]: 2 to 3 min
time to tonic-clonic convulsion with EEG spike-wave discharges post-injection [1]: 3~4 min
mice displaying diagonal retrograde tail [2]: 2/19
mice displaying tonic forelimb digit splaying [2]: 1/19
mice displaying tonic forelimb extension [2]: 1/19
mice exhibiting forelimb clonus [2]: 0/19
post-injection latency for onset of diagonal retrograde tail [2]: 31 ± 8 s
mice displaying diagonal retrograde tail [2, 17]: 19/19
mice displaying tonic forelimb digit splaying [2, 17]: 16/19
mice displaying tonic forelimb extension [2, 17]: 18/19
mice exhibiting forelimb clonus [2, 17]: 12/19
post-injection latency for onset of forelimb clonus [2, 17]: 59 ± 7 s
post-injection latency for onset of tonic digit splaying [2, 17]: 59 ± 6 s
post-injection latency for onset of tonic forelimb extension [2, 17]: 57 ± 5 s

Ic1ccc(C2CC3CCC2N3)cn1 (stereo not shown) [[^125I]-epibatidine]
Kd [3]: 120 ± 20 pM
Kd [4]: 130 ± 20 pM
Kd [5]: 150 ± 30 pM
Kd [6]: 80 ± 10 pM
Kd [7]: 110 ± 30 pM
Kd [8]: 150 ± 60 pM

CC(=O)OCC[N+](C)(C)C [ACh, acetylcholine iodide]
maximum ACh-stimulated [3H]-GABA release [9]: 3.31±0.24 and 3.69±0.19
reduction in maximal ACh-stimulated [3H]-GABA release [9]: 20%
maximum ACh-stimulated [3H]-GABA release [10]: 2.64±0.13
decrease in EC50, ACh-stimulated [3H]-GABA release [11]: approximately 10 fold
maximum ACh-stimulated [3H]-GABA release [11]: 1.96±0.17 and 2.25±0.16
reduction in maximal ACh-stimulated [3H]-GABA release [11]: 0%
maximum ACh-stimulated [3H]-GABA release [12]: 2.11±0.14
α-CtxMII-sensitive maximal [3H]-dopamine release [13]: 3.73±0.29
decrease in the α-CtxMII sensitive [3H]-dopamine release [14]: 23%
α-CtxMII-sensitive maximal [3H]-dopamine release [14]: 3.31±0.30
α-CtxMII-sensitive maximal [3H]-dopamine release ([14]; striatum, WT mice): 4.82±0.30
control ACh-stimulated 86Rb+ efflux [15]: 5.64±1.43 and 3.35±0.47
decrease in maximal ACh-stimulated [3H]-GABA release ([16]; α4S248F HT mice ref Teper et al.): 60%
decrease in maximal ACh-stimulated [3H]-GABA release ([16]; α4S248F MT mice ref Teper et al.): 80%
